Experimental data reported in patent publication US20250026787A1, “PEPTIDES AND METHODS FOR REDUCING SKIN PIGMENTATION” (Glo Pharma, Inc., priority 2021, published 2025).
Like-named read-outs stand apart in the source and are kept apart here. Square brackets hold non-standard residues; d marks the D form. Peptide text beside a SMILES is read from it.

Molecular target: T1, Human recombinant melanocortin MCI receptors (Homo sapiens, UniProt Q01726)
T1 construct: purchased Eurofins Discovery Item 251100; host or cells: CHO-K1
Experiment: MC1 Human Melanocortin GPCR Binding (Agonist Radioligand) competition assay (Eurofins Item 251100)
Protocol: The binding of Group A MCIR peptide antagonists of the disclosure was evaluated in a competition assay (MC1 Human Melanocortin GPCR Binding (Agonist Radioligand) Assay, Item 251100, Eurofins Discovery). […] Human recombinant melanocortin MCI receptors were expressed in CHO-K1 cells in modified HEPES-KOH buffer pH 7.0. […] Non-specific binding was estimated in the presence of 1 μM NDP-α-MSH. Receptors were filtered and washed, and the filters counted to determine [^125I] NDP-α-MSH specifically bound. Peptide antagonists of the disclosure having amino acid sequences as set forth in SEQ ID NOS: 11, 16, 25, 27, 32, 35, and 40 (each having a C-terminal —NH2) were screened at five concentrations, as well as a positive control, SEQ ID NO: 1 (Melanostatine-5). Inhibition curves were obtained by determining the reduction of bound α-MSH in the presence of an amount of, and/or by increasing amounts of, each peptide antagonist. Non-specific binding of peptide was estimated separately in the presence of a vast excess (1 mM) of unlabeled α-MSH, which occupies all the available receptor binding sites. Based on the competitive binding curve, the IC50 values were determined (Eurofins or AAT Bioquest IC50 calculator). […] The binding of Group A MCIR peptide antagonists of the disclosure was evaluated in a competition assay (MC1 Human Melanocortin GPCR Binding (Agonist Radioligand) Assay, Item 251100, Eurofins Discovery). […] Human recombinant melanocortin MCI receptors were expressed in CHO-K1 cells in modified HEPES-KOH buffer pH 7.0. […] Non-specific binding was estimated in the presence of 1 μM NDP-α-MSH. Receptors were filtered and washed, and the filters counted to determine [^125I]NDP-α-MSH specifically bound. Peptide antagonists of the disclosure having amino acid sequences as set forth in SEQ ID NOS: 11, 16, 25, 27, 32, 35, and 40 were screened at five concentrations. Inhibition curves were obtained by determining the reduction of bound α-MSH in the presence of an amount of, and/or by increasing amounts of, each peptide antagonist. […] Based on the percent inhibition relative to the agonist the IC50 values were determined (Eurofins or AAT Bioquest IC50 calculator).

[1] = Example 7, Table 7, binned, screened at five concentrations, read-out: IC50
[2] = stated as 'in some embodiments', broadest range, read-out: IC50 value using a competition assay

T1 sequence (Q01726 whole entry): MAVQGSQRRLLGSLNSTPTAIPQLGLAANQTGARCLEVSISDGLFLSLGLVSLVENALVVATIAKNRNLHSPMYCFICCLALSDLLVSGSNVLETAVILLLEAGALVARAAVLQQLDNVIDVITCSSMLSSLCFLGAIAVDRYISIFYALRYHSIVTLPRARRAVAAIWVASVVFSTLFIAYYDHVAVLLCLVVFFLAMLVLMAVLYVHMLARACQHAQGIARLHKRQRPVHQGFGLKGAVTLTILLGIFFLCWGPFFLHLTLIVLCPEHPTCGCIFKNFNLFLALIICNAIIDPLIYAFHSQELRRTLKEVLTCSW

Row | IC50 [1] [nM] | Compound | also measured
1 | 200 to 500 | CC(C)[C@H](NC(=O)[C@@H]1CCCN1C(=O)[C@H](CCCCN)NC(=O)[C@H](Cc1ccccc1)NC(=O)[C@@H](Cc1c[nH]c2ccccc12)NC(=O)[C@H](CCCNC(=N)N)NC(=O)[C@@H](Cc1ccccc1)NC(=O)[C@@H](NC(=O)[C@H](C)N)C(C)C)C(N)=O [SEQ ID NO: 11, Ala-Val-dPhe-Arg-dTrp-Phe-Lys-Pro-Val-NH2] (H-AV[dF]R[dW]FKPV-NH2) | –
2 | < 200 | CC[C@H](C)[C@H](N)C(=O)N[C@@H](Cc1ccccc1)C(=O)N[C@@H](CCCNC(=N)N)C(=O)N[C@H](Cc1c[nH]c2ccccc12)C(=O)N[C@@H](Cc1ccccc1)C(=O)N[C@@H](CCCCN)C(=O)N1CCC[C@H]1C(=O)N[C@H](C(N)=O)C(C)C [SEQ ID NO: 32, Ile-Phe-Arg-dTrp-Phe-Lys-Pro-Val-NH2] (H-IFR[dW]FKPV-NH2) | IC50 [2]: 70 to 160 nM
3 | > 500 | CC(C)[C@H](NC(=O)[C@@H]1CCCN1C(=O)[C@H](CCCCN)NC(=O)[C@H](Cc1ccccc1)NC(=O)[C@@H](Cc1c[nH]c2ccccc12)NC(=O)[C@H](CCCNC(=N)N)NC(=O)[C@@H](Cc1ccccc1)NC(=O)[C@@H](NC(=O)[C@@H](N)CCC(=O)O)C(C)C)C(N)=O [SEQ ID NO: 25, Glu-Val-dPhe-Arg-dTrp-Phe-Lys-Pro-Val-NH2] (H-EV[dF]R[dW]FKPV-NH2) | –
4 | – | CSCC[C@H](N)C(=O)N1CCC[C@H]1C(=O)N[C@H](Cc1ccccc1)C(=O)N[C@@H](CCCNC(=N)N)C(=O)N[C@H](Cc1c[nH]c2ccccc12)C(=O)N[C@@H](Cc1ccccc1)C(=O)N[C@@H](CCCCN)C(=O)N1CCC[C@H]1C(=O)N[C@H](C(N)=O)C(C)C [SEQ ID NO: 1, Met-Pro-D-Phe-Arg-D-Trp-Phe-Lys-Pro-Val, reference compound] (H-MP[dF]R[dW]FKPV-NH2) | IC50 (IC50, Example 7, Table 7, binned, screened at five concentrations): < 200 nM; IC50 (IC50 value, Example 1, competition with 0.04 nM [125I]NDP-α-MSH, 120 minutes at 37° C): 120 nM
5 | < 200 | CC(C)[C@H](NC(=O)[C@@H]1CCCN1C(=O)[C@H](CCCCN)NC(=O)[C@H](Cc1ccccc1)NC(=O)[C@@H](Cc1c[nH]c2ccccc12)NC(=O)[C@H](CCCNC(=N)N)NC(=O)[C@@H](Cc1ccccc1)NC(=O)[C@@H](NC(=O)[C@@H](N)Cc1ccccc1)C(C)C)C(N)=O [SEQ ID NO: 16, Phe-Val-dPhe-Arg-dTrp-Phe-Lys-Pro-Val-NH2] (H-FV[dF]R[dW]FKPV-NH2) | IC50 [2]: 70 to 160 nM
6 | > 500 | CSCC[C@H](N)C(=O)N[C@H](C(=O)N[C@@H](Cc1ccccc1)C(=O)N[C@@H](CCCNC(=N)N)C(=O)N[C@H](Cc1c[nH]c2ccccc12)C(=O)N[C@@H](Cc1ccccc1)C(=O)N[C@@H](CCCCN)C(=O)N1CCC[C@H]1C(=O)N[C@H](C(N)=O)C(C)C)C(C)C [SEQ ID NO: 27, Met-Val-Phe-Arg-dTrp-Phe-Lys-Pro-Val-NH2] (H-MVFR[dW]FKPV-NH2) | –
7 | > 500 | CSCC[C@H](N)C(=O)N[C@H](C(=O)N[C@H](Cc1ccccc1)C(=O)N[C@H](CCCNC(=N)N)C(=O)N[C@H](Cc1c[nH]c2ccccc12)C(=O)N[C@@H](Cc1ccccc1)C(=O)N[C@@H](CCCCN)C(=O)N1CCC[C@H]1C(=O)N[C@H](C(N)=O)C(C)C)C(C)C [SEQ ID NO: 35, Met-Val-dPhe-dArg-dTrp-Phe-Lys-Pro-Val-NH2] (H-MV[dF][dR][dW]FKPV-NH2) | –
8 | > 500 | CC(C)C[C@@H](NC(=O)[C@H](C)N)C(=O)N[C@H](Cc1ccccc1)C(=O)N[C@@H](CCCNC(=N)N)C(=O)N[C@H](Cc1c[nH]c2ccccc12)C(=O)N[C@@H](Cc1ccccc1)C(=O)N[C@@H](CCCCN)C(=O)N1CCC[C@H]1C(=O)N[C@H](C(N)=O)C(C)C [SEQ ID NO: 40, Ala-dLeu-dPhe-Arg-dTrp-Phe-Lys-Pro-Val-NH2] (H-A[dL][dF]R[dW]FKPV-NH2) | –
